Key:
mAMY3R = target: T1, mAMY3R (Mus musculus, UniProt Q60755+Q9WUP1); assay: Mouse receptor cAMP HTRF assay (BacMam, HeLa), mAMY3R; conditions: ratio of cAMP EC50 values, mouse receptors
T1 sequence (Q60755 42-496 isoform Q60755-2 limits assumed): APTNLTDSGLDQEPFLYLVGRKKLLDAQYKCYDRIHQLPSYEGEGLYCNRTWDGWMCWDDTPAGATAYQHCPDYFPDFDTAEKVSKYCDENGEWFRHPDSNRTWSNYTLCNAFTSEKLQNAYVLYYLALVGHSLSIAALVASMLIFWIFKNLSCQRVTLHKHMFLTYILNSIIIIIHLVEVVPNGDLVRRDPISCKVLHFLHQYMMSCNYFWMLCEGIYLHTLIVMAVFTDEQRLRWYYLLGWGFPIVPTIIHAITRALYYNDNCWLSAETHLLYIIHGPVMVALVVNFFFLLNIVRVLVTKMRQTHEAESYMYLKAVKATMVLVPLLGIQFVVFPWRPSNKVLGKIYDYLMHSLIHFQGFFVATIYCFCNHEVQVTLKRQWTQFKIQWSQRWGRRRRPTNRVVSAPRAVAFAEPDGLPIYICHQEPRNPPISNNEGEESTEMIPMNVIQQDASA
T1 sequence (Q9WUP1 24-147 partner limits assumed): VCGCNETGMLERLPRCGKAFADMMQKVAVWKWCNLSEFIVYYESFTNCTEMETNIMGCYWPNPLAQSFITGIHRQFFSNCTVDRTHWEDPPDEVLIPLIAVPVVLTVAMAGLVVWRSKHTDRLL
Description: Mouse Receptors (Functional Assay Only). Cell culture: HeLa cells were cultured in an incubator at 37 °C and 5% CO2, in cell culture medium (DMEM with 10% [v/v] FBS, 1% [w/w] penicillin/streptomycin).
Cell seeding in T75 flasks (day 1): The day before transfection of the cells, 2 x 10^6 HeLa cells were seeded in three T75 flasks and incubated overnight. Media was removed from 1–2 T175 flasks and cells were washed once with Dulbecco PBS (with Mg2+ and Ca2+). Cells were detached with 2 mL TrypLE Express for 5 min in an incubator. Five mL pre-warmed media was added to each T75 flask and mixed with the cell suspension. Cells were counted in 100 µL of this suspension. The cell suspension was centrifuged at 1200 rpm for 4 min and the supernatant was discarded. The cells were re-suspended in media and 2 x 10^6 cells were seeded in approximately 15 mL in each of the three T75 flasks. The flasks were incubated overnight.
with 20 µL poly-d-lysin/well for 2–3 h at 37 °C. The plates were washed twice with PBS and allowed
Transfection of cells (day 2): Reagents were acclimated to room temperature for 30 min. Media was
removed from the T75 flasks, and cells were washed once with PBS (with Mg2+ and Ca2+). Cells were
Seeding of transfected cells in assay plates (day 2): Following the 3-h transduction, T75 flasks were
washed once with PBS (with Mg2+ and Ca2+). […]
mL pre-warmed media and counted.

hAMY1R = hAMY1R (Homo sapiens, UniProt O60894+P30988); assay: Species-specific cAMP assay, hAMY1R; conditions: ratio of cAMP EC50 values, human receptors
Sequence of hAMY1R (P30988 25-474): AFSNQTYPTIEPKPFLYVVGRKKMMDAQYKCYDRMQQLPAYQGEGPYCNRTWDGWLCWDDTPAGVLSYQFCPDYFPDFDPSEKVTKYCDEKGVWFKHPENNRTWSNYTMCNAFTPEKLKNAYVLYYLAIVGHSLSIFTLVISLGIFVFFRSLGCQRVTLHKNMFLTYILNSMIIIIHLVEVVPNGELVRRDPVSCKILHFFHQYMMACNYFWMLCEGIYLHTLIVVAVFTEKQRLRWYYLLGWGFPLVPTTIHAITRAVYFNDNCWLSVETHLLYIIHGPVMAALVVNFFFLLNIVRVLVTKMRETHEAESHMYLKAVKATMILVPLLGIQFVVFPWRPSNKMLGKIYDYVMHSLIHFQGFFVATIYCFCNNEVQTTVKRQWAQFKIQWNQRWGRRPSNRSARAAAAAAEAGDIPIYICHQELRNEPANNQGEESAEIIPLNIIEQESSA
Sequence of hAMY1R (O60894 27-148 partner): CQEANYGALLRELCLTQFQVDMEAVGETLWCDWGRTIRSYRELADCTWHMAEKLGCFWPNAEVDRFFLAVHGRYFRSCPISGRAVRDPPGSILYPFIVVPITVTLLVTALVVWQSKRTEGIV

cAMY3R [1] = assay: Species-specific cAMP assay, cAMY3R; conditions: for Ratio CTR/AMY3R (canine, functional): ratio of cAMP EC50 values, canine receptors
in vivo = conditions: female, New Zealand white, rabbit, iv
Description: (§1) Blood samples were collected at fixed time points postdose to determine full PK profiles. Plasma samples were analyzed by ELISA. Plasma concentration–time profiles were analyzed by noncompartmental analysis.
Rabbits: Female rabbits (New Zealand white, Charles River; 21–23 weeks; 2.5–3.5 kg) were group-
housed (10 per cage) in normal day–night rhythm from arrival and had free access to food and water.
The rabbits were treated against coccidiosis during their 5-week acclimation period upon arrival. Iv
dosing was performed as a bolus injection into an ear vein with a dosing volume of 0.1 mL/kg. The
dosing solution was at room temperature before injection. Venous blood sampling was performed
directly through puncture of an ear vein using a needle. A full plasma concentration–time profile was
obtained from each animal.
Blood (300 µL) was collected directly into test
tubes containing EDTA buffer (Microvette CB 300 K2E). Samples were kept on wet ice until
centrifugation (10 min, 4 °C, 3000 rpm). Plasma (100 µL) was transferred immediately to Micronic
tubes and kept at –20 °C until analysis.
Plasma analysis: Plasma samples were analyzed by a commercially available kit (Millipore, Human
Amylin ELISA, cat. #EZHA-52-K). […]
was applied and the plate was read on a fluorescent reader with an excitation/emission wavelength of
samples. The lower limit of quantification (LLOQ) was 100–500 pM.

Pharmacokinetics in rats = conditions: male, Sprague-Dawley, rat, plasma, sc, 5 nmol/kg
Description: as §1
Pharmacokinetic Evaluation. Rats: Male Sprague-Dawley rats (Taconic, Europe; body weight
approximately 400 g) were group-housed under controlled temperature conditions (20 °C ± 2 °C).
Blood was collected from the sublingual vein and rats were acclimated to handling on three separate
occasions prior to blood collection.
the tail vein of five rats. Sc injections were performed in the neck of another group of five rats. The
dosing volume was 2 mL/kg.
collected into test tubes containing EDTA for stabilization and kept on ice until centrifugation. Each
blood sample was 100 µL. Plasma was separated from whole blood by centrifugation and was stored at
–20 °C or lower until analysis.

cAMY1R = assay: Whole-cell competition binding, cAMY1R; conditions: IC50 for the CTR divided by that of the AMYR, canine receptors
cAMY3R [2] = assay: Whole-cell competition binding, cAMY3R; conditions: IC50 for the CTR divided by that of the AMYR, canine receptors
rAMY3R = target: T2, rAMY3R (Rattus norvegicus, UniProt P32214+Q9JJ73); assay: Whole-cell competition binding, rAMY3R; parameters: expressed in transfected cells; host or cells: BHK tk-ts 13, transient co-transfection (FuGENE 6); conditions: IC50 for the CTR divided by that of the AMYR, rat receptors
T2 sequence (P32214 25-479 isoform P32214-2 limits assumed): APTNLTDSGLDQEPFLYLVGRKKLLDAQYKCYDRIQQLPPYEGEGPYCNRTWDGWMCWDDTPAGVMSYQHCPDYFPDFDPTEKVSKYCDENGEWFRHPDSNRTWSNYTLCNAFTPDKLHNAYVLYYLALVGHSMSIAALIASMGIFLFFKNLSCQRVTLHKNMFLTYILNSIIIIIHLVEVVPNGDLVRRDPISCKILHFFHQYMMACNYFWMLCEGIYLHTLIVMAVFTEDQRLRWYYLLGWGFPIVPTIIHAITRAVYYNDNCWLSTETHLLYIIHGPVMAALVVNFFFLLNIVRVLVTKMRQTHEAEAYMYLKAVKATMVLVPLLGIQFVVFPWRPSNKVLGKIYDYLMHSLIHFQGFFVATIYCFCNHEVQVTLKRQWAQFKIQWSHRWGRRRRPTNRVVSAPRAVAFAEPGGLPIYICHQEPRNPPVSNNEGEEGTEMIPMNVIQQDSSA
T2 sequence (Q9JJ73 23-147 partner): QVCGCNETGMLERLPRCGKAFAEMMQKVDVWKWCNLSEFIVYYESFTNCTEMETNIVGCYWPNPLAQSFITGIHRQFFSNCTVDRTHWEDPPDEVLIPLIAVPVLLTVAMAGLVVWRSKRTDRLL

CC[C@H](C)[C@H](NC(=O)[C@H](C)NC(=O)CNC(=O)[C@H](Cc1ccccc1)NC(=O)[C@H](CC(N)=O)NC(=O)[C@@H]1CCCN1C(=O)[C@H](CO)NC(=O)[C@H](CO)NC(=O)[C@H](Cc1c[nH]cn1)NC(=O)[C@H](CCCNC(=N)N)NC(=O)[C@H](CC(C)C)NC(=O)[C@H](Cc1ccccc1)NC(=O)[C@H](CC(=O)O)NC(=O)[C@H](C)NC(=O)[C@H](CC(C)C)NC(=O)[C@H](CCCNC(=N)N)NC(=O)[C@H](CCC(N)=O)NC(=O)[C@@H](NC(=O)[C@H](C)NC(=O)[C@@H]1CSSC[C@H](NC(=O)[C@@H](N)CCCCNC(=O)CC[C@H](NC(=O)CC[C@H](NC(=O)CCCCCCCCCCCCCCCCCCC(=O)O)C(=O)O)C(=O)O)C(=O)N[C@@H](CC(N)=O)C(=O)N[C@@H]([C@@H](C)O)C(=O)N[C@@H](C)C(=O)N[C@@H]([C@@H](C)O)C(=O)N1)[C@@H](C)O)C(=O)N1CCC[C@H]1C(=O)N[C@@H](CO)C(=O)N[C@@H](CO)C(=O)N[C@H](C(=O)N[C@@H](CC(N)=O)C(=O)N[C@H](C(=O)NCC(=O)N[C@@H](CO)C(=O)N[C@@H](CCCNC(=N)N)C(=O)N[C@H](C(=O)N[C@@H](Cc1ccc(O)cc1)C(N)=O)[C@@H](C)O)C(C)C)[C@@H](C)O [NN1213]
Ratio CTR/AMY3R (mouse, functional) (mAMY3R): 24 | Ratio CTR/AMY1R (human, functional) (hAMY1R): 32 | cAMY3R pEC50 (cAMY3R [1]; cAMP HTRF, transiently transfected BHK cells, 30 min room temperature, five experiments): 9.74 | Ratio CTR/AMY3R (canine, functional) (cAMY3R [1]): 2 | Ratio CTR/AMY3R (canine, functional) (cAMY3R [1]; listed as NN1213/peptide 21): 3 | half-life (in vivo): 49 h | bioavailability (Pharmacokinetics in rats): ~40% | Ratio CTR/AMY1R (canine, binding) (cAMY1R): 73 | Ratio CTR/AMY3R (canine, binding) (cAMY3R [2]): 40 | Ratio CTR/AMY3R (rat, binding) (rAMY3R): 52
